Laboratory results: patent publication US20040152672A1, “Indole compounds useful for the treatment of cancer” (priority 2000, published 2004)
Like-named read-outs stand apart in the source and are kept apart here. Residues, ends and D or L forms follow the SMILES beside them. *: point of attachment. Cbz = O=C(OCc1ccccc1)*; CH2F = FC*

How the values were obtained:
HCT-116 [1] = experiment: Cytotoxicity by MTT assay, confirmed by FACS propidium iodide uptake
MDA-MB-231 [2] = test system: MDA-MB-231
Bag-1 = Bag-1 level in LNCaP cells by SDS-PAGE immunoblot; conditions: for effect on the etodolac-induced fall in Bag-1 levels: co- or pre-incubation with etodolac, MG-132 at 5.0 μM
PC-3 [3] = experiment: Cytotoxicity by MTT assay, confirmed by FACS propidium iodide uptake
Bcl-2 and Bax = Bcl-2 and Bax levels in LNCaP cells; conditions: etodolac incubation; data not shown
OVCAR-3 [4] = experiment: Cytotoxicity by MTT assay, confirmed by FACS propidium iodide uptake
[5] = test system: normal peripheral blood lymphocytes (PBL); experiment: Viability of normal PBLs, erythrocin B exclusion assay; format: cell-based, human; conditions: FIG. 1; only at this concentration
A549 [6] = test system: A549
Alva-31 [7] = test system: Alva-31
Alva-31 [8] = experiment: Cytotoxicity by MTT assay, confirmed by FACS propidium iodide uptake
CLL cells [9] = experiment: Viability of CLL cells in culture, erythrocin B exclusion assay; format: cell-based, human; conditions: for killing of CLL cells by either drug alone: fludarabine 10 nM or etodolac 10 μM alone, 48 hours, FIG. 3
LNCaP-FGC [10] = test system: LNCaP-FGC
Mcl-1 = Mcl-1 level in LNCaP cells by SDS-PAGE immunoblot; conditions: for effect on the etodolac-induced fall in Mcl-1 levels: co- or pre-incubation with etodolac, MG-132 at 5.0 μM
OVCAR-3 [11] = test system: OVCAR-3
normal B cells = experiment: Viability of normal B lymphocytes (anti-CD19) by DiOC6 fluorescence; format: cell-based, human; conditions: 1.0 mM etodolac, 24 hours
Description: Peripheral blood lymphocytes from a normal donor were cultured with 1.0 mM etodolac for 24 hours. Then B lymphocytes were identified by staining with anti-CD19 antibody, and viability was assessed by DiOC6 fluorescence. […] When the same viability assay was run with purified CLL cells from the peripheral blood of a CLL patient, the results were different. […] More than 95% of the treated cells were malignant B lymphocytes.

MDA-MB-231 [12] = experiment: Cytotoxicity by MTT assay, confirmed by FACS propidium iodide uptake
A549 [13] = experiment: as above
HCT-116 [14] = test system: HCT-116
LNCaP-FGC [15] = experiment: Cytotoxicity by MTT assay, confirmed by FACS propidium iodide uptake
CLL cells [16] = experiment: In vitro survival of CLL cells taken from patients before and after etodolac tablets; format: in vivo, human; conditions: patient two
Description: Heparinized blood was taken from two patients ([…]) with CLL. Then each patient immediately took a 400 mg etodolac tablet, and a second tablet 12 hours later. After another 12 hours, a second blood specimen was obtained. The CLL cells were isolated and their survival in vitro were compared in RPMI 1640 medium containing 10% autologous plasma, as described in Example 1. The circles show CLL cells before etodolac treatment. In FIGS. 6-7, the upward pointing triangles represent CLL cell viability after etodolac treatment, wherein the cells are dispersed in medium containing the pre-treatment plasma. The downward pointing triangles are CLL cells after treatment maintained in medium with the post-treatment plasma.
FIG. 8 is a flow cytometric analysis of CLL cells from patient two before and after etodolac treatment. […]
To conduct the flow cytometric analysis, the mitochondrial transmembrane potential was analyzed by 3,3′ dihexyloxacarboncyanide iodide (DiOC6), cell membrane permeability by propidium iodide (PI)3 and mitochondrial respiration by dihydrorhodamine 123 (DHR) (See J. A. Royall et al., Arch. Biochem. Biophys., 302, 348 (1993)). […] Cells were analyzed within 30 minutes in a Becton Dickinson FAC-Scalibur cytofluorometer. After suitable […], fluorescence was recorded at different wavelength: DiOC6 and DHR at 525 nm (Fl-1) and PI at 600 nm (FL-3).

PC-3 [17] = test system: PC-3
[18] = cited from earlier work
[19] = in vivo
adjuvant polyarthritis = conditions: reduction in paw volume of rats with adjuvant polyarthritis, prostaglandin synthetase inhibitory activity; Demerson et al.; cited from earlier work
PPAR-γ = PPAR-γ (Mus musculus, UniProt P37238); conditions: RAW264.7, 24 hours; concentrations readily achieved in human plasma; FIG. 13
MRP = MRP (Homo sapiens, UniProt P33527); conditions: WO98/18490; cited from earlier work
prostate cancer = conditions: TRAMP mouse; Wechter et al. 2000; cited from earlier work
B-cell CLL cells = conditions: Bellosillo et al., Blood 1998; cited from earlier work
[20] = 100 μM etodolac, as early as two hours

MRP, sequence (P33527 whole entry): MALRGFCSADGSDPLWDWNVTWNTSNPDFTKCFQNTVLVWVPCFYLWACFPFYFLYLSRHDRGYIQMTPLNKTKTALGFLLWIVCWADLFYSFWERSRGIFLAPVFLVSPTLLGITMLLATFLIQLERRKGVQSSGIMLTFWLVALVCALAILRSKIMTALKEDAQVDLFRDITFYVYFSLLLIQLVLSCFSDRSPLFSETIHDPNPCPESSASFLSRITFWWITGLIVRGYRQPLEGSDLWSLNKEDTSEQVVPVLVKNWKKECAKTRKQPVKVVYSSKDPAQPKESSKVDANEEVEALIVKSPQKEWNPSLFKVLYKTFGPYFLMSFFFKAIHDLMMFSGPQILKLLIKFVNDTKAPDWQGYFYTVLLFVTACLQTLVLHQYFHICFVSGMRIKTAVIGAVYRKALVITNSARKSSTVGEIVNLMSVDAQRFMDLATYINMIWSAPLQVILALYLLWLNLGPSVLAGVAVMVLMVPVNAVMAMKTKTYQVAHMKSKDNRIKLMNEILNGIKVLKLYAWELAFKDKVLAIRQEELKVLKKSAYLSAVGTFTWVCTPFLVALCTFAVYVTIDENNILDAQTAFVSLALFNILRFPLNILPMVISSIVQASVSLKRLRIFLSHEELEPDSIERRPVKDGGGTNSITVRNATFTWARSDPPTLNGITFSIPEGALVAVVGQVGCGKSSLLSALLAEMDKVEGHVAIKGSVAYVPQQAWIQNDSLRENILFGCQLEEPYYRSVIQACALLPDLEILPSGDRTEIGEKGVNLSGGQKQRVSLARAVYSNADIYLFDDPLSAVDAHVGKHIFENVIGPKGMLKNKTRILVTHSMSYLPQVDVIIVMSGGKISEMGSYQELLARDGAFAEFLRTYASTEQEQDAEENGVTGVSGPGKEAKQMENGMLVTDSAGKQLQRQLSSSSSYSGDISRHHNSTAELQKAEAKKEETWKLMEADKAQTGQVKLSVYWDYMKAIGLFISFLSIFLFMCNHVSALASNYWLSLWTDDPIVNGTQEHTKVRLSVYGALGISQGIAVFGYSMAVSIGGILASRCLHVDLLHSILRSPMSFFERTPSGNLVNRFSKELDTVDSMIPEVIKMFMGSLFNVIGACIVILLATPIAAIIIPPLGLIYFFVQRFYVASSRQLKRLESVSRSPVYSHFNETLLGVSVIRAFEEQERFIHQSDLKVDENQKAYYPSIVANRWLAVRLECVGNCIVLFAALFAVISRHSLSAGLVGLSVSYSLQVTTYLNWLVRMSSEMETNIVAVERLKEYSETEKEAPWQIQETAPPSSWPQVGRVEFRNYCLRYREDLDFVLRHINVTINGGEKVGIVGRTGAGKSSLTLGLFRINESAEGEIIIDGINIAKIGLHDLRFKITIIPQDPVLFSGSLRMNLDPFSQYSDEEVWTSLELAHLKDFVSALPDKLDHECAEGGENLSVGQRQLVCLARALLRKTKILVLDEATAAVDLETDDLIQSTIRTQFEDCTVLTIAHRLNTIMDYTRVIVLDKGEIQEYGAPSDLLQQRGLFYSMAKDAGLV
PPAR-γ, sequence (P37238 31-505 limits assumed): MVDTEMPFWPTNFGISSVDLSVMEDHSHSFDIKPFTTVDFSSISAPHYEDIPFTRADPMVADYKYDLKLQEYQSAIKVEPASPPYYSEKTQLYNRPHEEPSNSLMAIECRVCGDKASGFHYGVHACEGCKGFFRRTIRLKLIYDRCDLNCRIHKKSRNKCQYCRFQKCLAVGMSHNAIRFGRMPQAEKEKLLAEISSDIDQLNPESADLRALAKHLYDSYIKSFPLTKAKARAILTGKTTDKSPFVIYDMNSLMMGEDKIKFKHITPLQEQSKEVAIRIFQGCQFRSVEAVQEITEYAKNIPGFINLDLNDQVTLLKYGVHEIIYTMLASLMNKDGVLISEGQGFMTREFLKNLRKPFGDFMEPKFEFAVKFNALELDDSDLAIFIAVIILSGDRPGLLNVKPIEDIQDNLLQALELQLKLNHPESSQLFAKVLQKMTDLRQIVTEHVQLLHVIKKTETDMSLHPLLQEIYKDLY

## CCc1cccc2c3c([nH]c12)C(CC)(CC(=O)O)OCC3 (stereo not drawn) [Etodolac R/S, 1,8-diethyl-1,3,4,9-tetrahydro[3,4-6]indole-1-acetic acid]
HCT-116 [1]; HCT-116, sensitivity of the cell line to etodolac
  Phenoty: Sensitive
MDA-MB-231 [2]
  IC50: > 1000 µM
Bag-1; [20]
  Bag-1 levels: fell
PC-3 [3]; PC-3, sensitivity of the cell line to etodolac
  Phenoty: Sensitive
Bcl-2 and Bax
  Bcl-2 and Bax levels: did not alter
OVCAR-3 [4]; OVCAR-3, sensitivity of the cell line to etodolac
  Phenoty: Resistant
[5]
  concentration at which significant death of normal PBLs occurred: 800 µM
A549 [6]
  IC50: > 1000 µM
Alva-31 [7]
  IC50: > 1000 µM
Alva-31 [8]; Alva-31, sensitivity of the cell line to etodolac
  Phenoty: Resistant
CLL cells [9]; 200 μM, 48 hour exposure, FIG. 2
  CLL cells killed: 50%
CLL cells [9]
  killing of CLL cells by either drug alone: ineffective
LNCaP-FGC [10]
  IC50: 400 ± 35 µM
Mcl-1; [20]
  Mcl-1 levels: fell
OVCAR-3 [11]
  IC50: > 1000 µM
Normal B cells
  viability of normal B cells compared to control cultures: did not reduce the viability
SW260
  IC50: 1000 ± 120 µM
SW260; SW260, sensitivity of the cell line to etodolac
  Phenoty: Resistant
MDA-MB-231 [12]; MDA-MB-231, sensitivity of the cell line to etodolac
  Phenoty: Resistant
A549 [13]; A549, sensitivity of the cell line to etodolac
  Phenoty: Resistant
HCT-116 [14]
  IC50: 450 ± 15 µM
LNCaP-FGC [15]; LNCaP-FGC, sensitivity of the cell line to etodolac
  Phenoty: Sensitive
CLL cells [16]; flow cytometry, detectable at 12 hours, increases after 24 hours, FIG. 8
  apoptotic CLL cells (low DiOC6 staining, left lower box) after versus before treatment: much higher after the drug
CLL cells [16]; two 400 mg tablets 12 hours apart, FIG. 6
  in vitro survival of CLL cells after treatment compared to before treatment: shortened survival
PC-3 [17]
  IC50: 340 ± 20 µM
[18]; in vivo
  elimination half-life: 6 to 8 h
Prostate cancer tissue
  effect on normal basal cells in prostatectomy samples: did not affect

## CCc1cccc2c3c([nH]c12)[C@@](CC)(CC(=O)O)OCC3 [Etodolac R]
HCT-116 [1]; read-out: IC50 cytotoxicity, HCT-116 (colon), MTT after three days continuous exposure
  IC50: 280 ± 20 µM
PC-3 [3]; read-out: IC50 cytotoxicity, PC-3 (prostate), MTT after three days continuous exposure
  IC50: 150 ± 15 µM
[19]
  maximal plasma concentration in a human subject (should yield): about 400 μM
OVCAR-3 [4]; read-out: IC50 cytotoxicity, OVCAR-3 (ovarian), MTT after three days continuous exposure
  IC50: > 1000 µM
Alva-31 [8]; read-out: IC50 cytotoxicity, Alva-31 (prostate), MTT after three days continuous exposure
  IC50: > 1000 µM
Mcl-1
  Mcl-1 degradation by the enantiomers: induced Mcl-1 degradation at equivalent concentrations
MDA-MB-231 [12]; read-out: IC50 cytotoxicity, MDA-MB-231 (breast), MTT after three days continuous exposure
  IC50: > 1000 µM
Adjuvant polyarthritis
  anti-inflammatory activity: No anti-inflammatory activity was discernible
A549 [13]; read-out: IC50 cytotoxicity, A549 (lung), MTT after three days continuous exposure
  IC50: > 1000 µM
PPAR-γ
  activation of PPAR-γ reporter gene construct: activated
LNCaP-FGC [15]; read-out: IC50 cytotoxicity, LNCaP-FGC (prostate), MTT after three days continuous exposure
  IC50: 270 ± 50 µM
[18]; after a 200 mg dose in six elderly patients
  maximum plasma concentration: about 33 μM
[18]; after the administration of RS-etodolac
  plasma concentrations, fold higher than those of the S-enantiomer: about 10 fold

## CCc1cccc2c3c([nH]c12)C(CC)(CC(=O)O)OCC3 (stereo not drawn) [Etodolac S]
MDA-MB-231 [2]
  IC50: > 1000 µM
A549 [6]
  IC50: > 1000 µM
Alva-31 [7]
  IC50: > 1000 µM
LNCaP-FGC [10]
  IC50: 220 ± 20 µM
Mcl-1
  Mcl-1 degradation by the enantiomers: induced Mcl-1 degradation at equivalent concentrations
OVCAR-3 [11]
  IC50: > 1000 µM
Adjuvant polyarthritis
  anti-inflammatory activity: almost all of the anti-inflammatory activity of the racemate
HCT-116 [14]
  IC50: 420 ± 50 µM
PPAR-γ
  activation of PPAR-γ reporter gene construct: activated
PC-3 [17]
  IC50: 800 µM

## CC(C)C[C@@H](C=O)NC(=O)[C@H](CC(C)C)NC(=O)[C@H](CC(C)C)NC(=O)OCc1ccccc1 [MG-132] (Cbz-Leu-Leu-Leu-aldehyde)
Bag-1
  effect on the etodolac-induced fall in Bag-1 levels: prevented
Mcl-1
  effect on the etodolac-induced fall in Mcl-1 levels: prevented

## COc1ccc2cc([C@H](C)C(=O)O)ccc2c1 [Naproxen]
MRP
  increase of the potency of the anti-cancer drug: inactive

## C[C@@H](C(=O)O)c1ccc(-c2ccccc2)c(F)c1 [R-flurbiprofen]
Prostate cancer
  progression of prostate cancer: inhibited progression of prostate cancer

## CC(NC(=O)C(NC(=O)OCc1ccccc1)C(C)C)C(=O)NC(CC(=O)O)C(=O)CF (stereo not drawn) [Z-VAD] (Cbz-Val-Ala-Asp-CH2F; configuration not given here)
Bag-1
  effect on the etodolac-induced fall in Bag-1 levels: did not prevent
Mcl-1
  effect on the etodolac-induced fall in Mcl-1 levels: did not prevent

## CC(=O)Oc1ccccc1C(=O)O [aspirin]
B-cell CLL cells
  viability of B-cell CLL cells in vitro: reduced the viability

## Nc1nc(F)nc2c1ncn2[C@@H]1O[C@H](CO)[C@@H](O)[C@@H]1O [fludarabine]
CLL cells [9]
  killing of CLL cells by either drug alone: ineffective

## CN1C(C(=O)Nc2ccccn2)=C(O)c2ccccc2S1(=O)=O [piroxicam]
MRP
  increase of the potency of the anti-cancer drug: inactive

## O=C(O)c1ccccc1O [salicylate]
B-cell CLL cells
  viability of B-cell CLL cells in vitro: reduced the viability
